Reference: US20210038607A1, “OXADIAZOLYLTHIOPHENE DERIVATIVES USEFUL AS HISTONE DEACETYLASE INHIBITORS” (Karus Therapeutics Limited, priority 2018, published 2021)

How the values were obtained:
Human HDAC11 = target: T1, Human HDAC11 (Homo sapiens, UniProt Q96DB2); assay: HDAC11 biochemical assay, class IIa-specific substrate; settings: read-out: HDAC Isoform IC50 (nM) 11
T1 construct: Human HDAC11 (full length); His (N); host or cells: baculovirus expression system
T1 sequence (Q96DB2 1-347): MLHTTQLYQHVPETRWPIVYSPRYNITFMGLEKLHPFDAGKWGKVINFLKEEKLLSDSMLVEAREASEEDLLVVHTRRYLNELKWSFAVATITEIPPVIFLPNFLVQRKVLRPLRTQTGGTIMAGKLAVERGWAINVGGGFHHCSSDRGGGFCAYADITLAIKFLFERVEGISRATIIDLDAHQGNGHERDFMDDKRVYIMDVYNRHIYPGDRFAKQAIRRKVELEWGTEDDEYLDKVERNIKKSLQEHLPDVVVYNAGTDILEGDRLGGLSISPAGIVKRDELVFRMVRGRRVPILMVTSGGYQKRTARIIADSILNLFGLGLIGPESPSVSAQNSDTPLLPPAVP
Procedure, shortened: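 Full-length N-His human HDAC11 from baculovirus, 5 ng/μl, incubated with 50 μM Boc-Lys(trifluoroacetyl)-AMC for 30 min at 30 °C. Buffer: 50 mM Tris-HCl pH 8.0, 137 mM NaCl, 2.7 mM KCl, 1 mM MgCl2, 1 mg/mL BSA, 1% DMSO. Developer releases AMC; fluorescence read at 360/460 nm.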

Human HDAC5 = target: T2, Human HDAC5 (Homo sapiens, UniProt Q9UQL6); assay: HDAC5 biochemical assay, class IIa-specific substrate; settings: read-out: HDAC Isoform IC50 (nM) 5
T2 construct: full length with C-terminal His tag, MW=51.1 kDa; His (C); host or cells: baculovirus expression system
T2 sequence (Q9UQL6 656-1122 limits assumed): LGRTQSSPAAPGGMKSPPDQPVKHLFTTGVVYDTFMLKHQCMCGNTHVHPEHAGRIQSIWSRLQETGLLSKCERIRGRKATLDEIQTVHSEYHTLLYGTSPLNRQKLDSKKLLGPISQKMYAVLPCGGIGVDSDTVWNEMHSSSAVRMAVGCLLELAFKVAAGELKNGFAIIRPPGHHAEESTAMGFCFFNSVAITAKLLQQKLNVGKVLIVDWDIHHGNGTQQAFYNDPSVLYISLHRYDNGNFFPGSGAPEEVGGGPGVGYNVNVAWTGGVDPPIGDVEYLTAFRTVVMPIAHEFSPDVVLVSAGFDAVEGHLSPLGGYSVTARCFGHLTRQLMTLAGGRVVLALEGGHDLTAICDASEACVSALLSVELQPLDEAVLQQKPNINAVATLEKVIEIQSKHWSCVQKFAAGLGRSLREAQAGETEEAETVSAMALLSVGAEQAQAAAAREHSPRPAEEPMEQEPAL
Procedure, shortened: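 Full-length C-terminal His-tagged HDAC5 from baculovirus (0.05 ng/ul) incubated 30 min at room temperature with 50 μM Boc-Lys(trifluoroacetyl)-AMC and compound, Tris pH 8.0 buffer with BSA, 1% DMSO. Developer then releases AMC; fluorescence 360/460 nm.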

Recombinant human HDAC6 = target: T3, Recombinant human HDAC6 (Homo sapiens, UniProt Q9UBN7); assay: HDAC6 biochemical assay, AMC-labeled peptide substrate; settings: HDAC6; read-out: HDAC Isoform IC50 (nM) 6
T3 construct: full length, MW=159 kDa; GST (N); host or cells: Sf9 insect cells (baculovirus)
T3 sequence (Q9UBN7 1-1215): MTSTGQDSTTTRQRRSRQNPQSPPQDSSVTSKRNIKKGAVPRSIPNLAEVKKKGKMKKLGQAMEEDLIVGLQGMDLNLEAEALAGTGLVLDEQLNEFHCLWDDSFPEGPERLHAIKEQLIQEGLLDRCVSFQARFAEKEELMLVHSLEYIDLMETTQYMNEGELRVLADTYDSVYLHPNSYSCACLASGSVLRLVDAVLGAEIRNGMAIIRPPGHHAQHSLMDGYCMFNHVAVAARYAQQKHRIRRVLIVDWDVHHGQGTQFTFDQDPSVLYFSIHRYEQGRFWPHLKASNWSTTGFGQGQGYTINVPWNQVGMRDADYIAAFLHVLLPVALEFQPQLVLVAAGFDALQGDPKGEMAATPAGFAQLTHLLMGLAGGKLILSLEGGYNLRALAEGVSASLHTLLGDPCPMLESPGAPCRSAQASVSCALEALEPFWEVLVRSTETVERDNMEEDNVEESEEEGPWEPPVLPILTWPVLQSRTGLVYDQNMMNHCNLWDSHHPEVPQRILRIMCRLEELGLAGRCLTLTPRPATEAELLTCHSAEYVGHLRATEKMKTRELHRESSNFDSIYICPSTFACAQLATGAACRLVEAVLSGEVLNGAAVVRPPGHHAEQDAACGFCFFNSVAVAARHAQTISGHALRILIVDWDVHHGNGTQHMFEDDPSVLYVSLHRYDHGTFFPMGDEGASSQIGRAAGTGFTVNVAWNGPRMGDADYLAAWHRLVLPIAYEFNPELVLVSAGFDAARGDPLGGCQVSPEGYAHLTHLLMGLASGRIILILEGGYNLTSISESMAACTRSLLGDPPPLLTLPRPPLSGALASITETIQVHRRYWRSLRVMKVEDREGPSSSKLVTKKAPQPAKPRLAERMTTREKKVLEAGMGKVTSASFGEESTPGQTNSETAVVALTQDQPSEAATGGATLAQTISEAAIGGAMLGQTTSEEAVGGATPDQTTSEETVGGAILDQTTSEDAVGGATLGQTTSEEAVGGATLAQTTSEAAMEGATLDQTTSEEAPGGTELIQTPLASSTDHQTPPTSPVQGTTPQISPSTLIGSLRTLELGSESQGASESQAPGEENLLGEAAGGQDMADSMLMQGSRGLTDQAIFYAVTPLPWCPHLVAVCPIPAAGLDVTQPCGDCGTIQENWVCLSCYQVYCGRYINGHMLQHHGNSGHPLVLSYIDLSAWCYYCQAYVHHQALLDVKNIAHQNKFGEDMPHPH
Procedure, shortened: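 Two-step fluorogenic read-out: enzyme deacetylates 50 μM RHKK(Ac)AMC for 1 h at 30° C in pH 8.0 Tris buffer with BSA and 1% DMSO, then developer cleavage gives signal at Ex 360/Em 460. Enzyme: 0.3 ng/ul recombinant full-length human HDAC6, GST-tagged, Sf9-expressed.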

| IC50 (Human HDAC11) | IC50 (Human HDAC5) | IC50 (Recombinant human HDAC6) | Structure (SMILES) |
| --- | --- | --- | --- |
| > 10000 nM | ≤ 500 nM | ≤ 500 nM | Cc1nccnc1N(Cc1ccc(-c2noc(C(F)(F)F)n2)s1)c1cnccn1 [Example BE, 3-Methyl-N-(pyrazin-2-yl)-N-({5-[5-(trifluoromethyl)-1,2,4-oxadiazol-3-yl]thiophen-2-yl}methyl)pyrazin-2-amine] |
| > 10000 nM | ≤ 10000 nM | ≤ 1000 nM | FC(F)(F)c1nc(-c2ccc(CN(c3ccccn3)c3ccccn3)s2)no1 [Example U, N-(Pyridin-2-yl)-N-({5-[5-(trifluoromethyl)-1,2,4-oxadiazol-3-yl]thiophen-2-yl}methyl)pyridin-2-amine] |
| > 10000 nM | ≤ 1000 nM | ≤ 10000 nM | FC(F)(F)c1nc(-c2ccc(CN(c3cnccn3)c3cnc(N4CCOCC4)cn3)s2)no1 [Example BM, 5-(Morpholin-4-yl)-N-(pyrazin-2-yl)-N-({5-[5-(trifluoromethyl)-1,2,4-oxadiazol-3-yl]thiophen-2-yl}methyl)pyrazin-2-amine] |
| > 10000 nM | ≤ 500 nM | ≤ 500 nM | O=C(c1ccc(N(Cc2ccc(-c3noc(C(F)(F)F)n3)s2)c2cnccn2)nn1)N1CCCCC1 [Example FG, 6-(Piperidine-1-carbonyl)-N-(pyrazin-2-yl)-N-({5-[5-(trifluoromethyl)-1,2,4-oxadiazol-3-yl]thiophen-2-yl}methyl)pyridazin-3-amine] |
| > 10000 nM | ≤ 1000 nM | ≤ 500 nM | O=C(c1cnnc(N(Cc2ccc(-c3noc(C(F)(F)F)n3)s2)c2cnccn2)c1)N1CC(O)(C(F)(F)F)C1 [Example GD, 1-{6-[(Pyrazin-2-yl)({5-[5-(trifluoromethyl)-1,2,4-oxadiazol-3-yl]thiophen-2-yl}methyl)amino]pyridazine-4-carbonyl}-3-(trifluoromethyl)azetidin-3-ol] |
| > 10000 nM | ≤ 1000 nM | ≤ 500 nM | FC(F)c1cnnc(N(Cc2ccc(-c3noc(C(F)(F)F)n3)s2)c2cnccn2)c1 [Example GV, 5-(Difluoromethyl)-N-(pyrazin-2-yl)-N-({5-[5-(trifluoromethyl)-1,2,4-oxadiazol-3-yl]thiophen-2-yl}methyl)pyridazin-3-amine] |
| > 10000 nM | ≤ 1000 nM | ≤ 500 nM | O=C(c1cnnc(N(Cc2ccc(-c3noc(C(F)(F)F)n3)s2)c2cnccn2)c1)N1CCC1 [Example FS, 5-(Azetidine-1-carbonyl)-N-(pyrazin-2-yl)-N-({5-[5-(trifluoromethyl)-1,2,4-oxadiazol-3-yl]thiophen-2-yl}methyl)pyridazin-3-amine] |
| > 10000 nM | ≤ 10000 nM | ≤ 1000 nM | O=C(c1nccnc1N(Cc1ccc(-c2noc(C(F)(F)F)n2)s1)c1cnccn1)N1CC(O)(C(F)(F)F)C1 [Example GQ, 1-{3-[(Pyrazin-2-yl)({5-[5-(trifluoromethyl)-1,2,4-oxadiazol-3-yl]thiophen-2-yl}methyl)amino]pyrazine-2-carbonyl}-3-(trifluoromethyl)azetidin-3-ol] |

| Structure (SMILES) | IC50 (Human HDAC11) | IC50 (Human HDAC5) | IC50 (Recombinant human HDAC6) |
| --- | --- | --- | --- |
| O=C(c1cnnc(N(Cc2ccc(-c3noc(C(F)(F)F)n3)s2)c2cnccn2)c1)N1C2CCC1COC2 [Example GB, 5-{3-Oxa-8-azabicyclo[3.2.1]octane-8-carbonyl}-N-(pyrazin-2-yl)-N-({5-[5-(trifluoromethyl)-1,2,4-oxadiazol-3-yl]thiophen-2-yl}methyl)pyridazin-3-amine] | > 10000 nM | ≤ 1000 nM | ≤ 500 nM |
